Results on two compounds are retold here after patent US20260297118A1, “SUBSTITUTED PYRIMIDINONE AND AZAPYRIMIDINONE COMPOUNDS, COMPOSITIONS, AND USES THEREOF” (LAKEWOOD AMEDEX, INC., priority 2023, published 2026).

Holding throughout (format): cell-based
Details in all cases: pH 4-5, 18 to 24 hours

The subject of assay [1] is Pseudomonas aeruginosa (6328). In words: MIC, broth microdilution, Pseudomonas aeruginosa (6328). The protocol: (§1) MIC testing is conducted using the broth (Mueller Hinton Broth) microdilution procedures relevant to each organism group as established by the Clinical and Laboratory Standards Institute (CLSI; 3-7). MIC plates are prepared in accordance with CLSI (3-7). To prepare the test plates, automated liquid handlers are used to conduct serial dilutions and liquid transfers. Automated liquid handlers utilized in this study include the Multidrop 384 (Labsystems, Helsinki, Finland) and the Biomek 2000 (Beckman Coulter, Fullerton CA). The solution is diluted to desired pH using 1 M Citric Acid or 1 M NaOH buffer. A standardized inoculum of each test organism is prepared per CLSI methods (3, 5-7) to equal a 0.5 McFarland standard in the appropriate media followed by an additional 1:20 dilution (1:10 for anaerobes).
(§2) The plates are then inoculated with 10 μL of the diluted 0.5 McFarland suspension using the Biomek 2000 from low to high drug concentration, resulting in a final concentration of approximately 5×10^5 CFU/mL per well. An un-inoculated plate is incubated for the purpose of assessing solubility of the drug in the test media. The plates are stacked 3 to 4 high, covered with a sterile lid on the top plate, and incubated for 18 to 24 hours according to CLSI. The MIC is recorded as the lowest concentration of respective compound that inhibited visible growth of the organism.
In general terms: Dilution methods test growth across graded concentrations, often in twofold steps.

Assay [2] deals with Escherichia coli (6098). In words: MIC, broth microdilution, Escherichia coli (6098). The protocol:
as §1, §2

Assay [3] has as its system Pseudomonas aeruginosa (6234). In words: MIC, broth microdilution, Pseudomonas aeruginosa (6234). The protocol: as §1, §2
The test system of assay [4] is Pseudomonas aeruginosa (6160). In words: MIC, broth microdilution, Pseudomonas aeruginosa (6160). The protocol: as §1, §2
The subject of assay [5] is Escherichia coli (6260). In words: MIC, broth microdilution, Escherichia coli (6260). The protocol:
as §1, §2

Assay [6] relates to Pseudomonas aeruginosa (6326). In words: MIC, broth microdilution, Pseudomonas aeruginosa (6326). The protocol:
as §1, §2

Assay [7] has as its system Pseudomonas aeruginosa (0103). In words: MIC, broth microdilution, Pseudomonas aeruginosa (0103). How it is done:
as §1, §2

The test system of assay [8] is Escherichia coli (6259). In words: MIC, broth microdilution, Escherichia coli (6259). How it is done: as §1, §2
Assay [9] relates to Escherichia coli (6258). In words: MIC, broth microdilution, Escherichia coli (6258). How it is done: as §1, §2
The test system of assay [10] is Escherichia coli (0102). In words: MIC, broth microdilution, Escherichia coli (0102). How it is done: as §1, §2

What is called MIC is the smallest concentration in the dilution series that meets the test's criterion for growth inhibition. Low readings indicate greater potency, high ones weaker potency. With `CCCCOP(=O)(O)OC[C@H]1O[C@@H](n2ccc(N)nc2=O)[C@H](OC)[C@@H]1O` [R-5, (2R,3S,4R,5R)-5-(4-amino-2-oxopyrimidin-1(2H)-yl)-3-hydroxy-4-methoxy-tetrahydrofuran-2-methyl butyl phosphate], the MIC in [1] amounted to 25 mg/mL; in assay [2], 100 mg/mL; in [3] it was 25 mg/mL; in assay [4], 25 mg/mL; in assay [5], 100 mg/mL; in [6] it was 25 mg/mL. Further, the MIC in [7] worked out at 25 mg/mL; in assay [8], 50 mg/mL; in assay [9] it was 100 mg/mL; in assay [10], 50 mg/mL.

As for `CCCCOP(=O)(O)OC[C@H]1O[C@@H](n2ccc(N)nc2=O)C[C@@H]1O` [R-1, (2R,3S,5R)-5-(4-amino-2-oxopyrimidin-1(2H)-yl)-3-hydroxytetrahydrofuran-2-methyl butyl phosphate], the MIC in [1] is 25 mg/mL; in assay [2] it was 50 mg/mL; in [3], 25 mg/mL; in assay [4], 25 mg/mL; in [5] it was 50 mg/mL; in assay [6], 25 mg/mL. Also, the MIC in assay [7] worked out at 25 mg/mL; in [8] it was 50 mg/mL; in assay [9] it was 50 mg/mL; in [10] it was 50 mg/mL.
